Measurements as given in ChEMBL document CHEMBL1155773, “Effects of imipenem-cilastatin, ertapenem, piperacillin-tazobactam, and ceftriaxone treatments on persistence of intestinal colonization by extended-spectrum-beta-lactamase-producing Klebsiella pneumoniae strains in mice” (2007).
≈ marks a conversion by molar mass, not a printed value. Calls of active or inactive are those of the source. The calls are words filed in the database; no cut-off is given here.

How the values were obtained:
Klebsiella pneumoniae [1] = assay: Effect on extended-spectrum-beta-lactamase-producing Klebsiella pneumoniae P62 infected in sc dosed CF1 mouse with high-density bacterial colonization administered daily for 9 days assessed as promotion of persistent bacterial overgrowth by measuring stool bacterial count; assay type: functional, organism-based
Klebsiella pneumoniae [2] = assay: Antibacterial activity against extended-spectrum-beta-lactamase-producing Klebsiella pneumoniae P10045 by broth dilution method; assay type: functional
Klebsiella pneumoniae [3] = assay: Antibacterial activity against extended-spectrum-beta-lactamase-producing Klebsiella pneumoniae isolate; assay type: functional
Klebsiella pneumoniae [4] = assay: Effect on extended-spectrum-beta-lactamase-producing Klebsiella pneumoniae P10045 infected in sc dosed CF1 mouse with high-density bacterial colonization administered daily for 9 days assessed as promotion of persistent bacterial overgrowth by measuring stool bacterial count; assay type: functional, organism-based
Klebsiella pneumoniae [5] = assay: Antibacterial activity against extended-spectrum-beta-lactamase-producing Klebsiella pneumoniae P62 by broth dilution method; assay type: functional
Klebsiella pneumoniae [6] = assay: Antibacterial activity against extended-spectrum-beta-lactamase-producing Klebsiella pneumoniae P10045 infected in sc dosed CF1 mouse with high-density bacterial colonization administered daily for 9 days assessed as suppression of stool bacterial count; assay type: functional, organism-based
Klebsiella pneumoniae [7] = assay: Antibacterial activity against extended-spectrum-beta-lactamase-producing Klebsiella pneumoniae P62 infected in sc dosed CF1 mouse with high-density bacterial colonization administered daily for 9 days assessed as suppression of stool bacterial count; assay type: functional, organism-based

SMILES	Activity (Klebsiella pneumoniae [1])	MIC (Klebsiella pneumoniae [2]) [µg/mL]	MIC (Klebsiella pneumoniae [3]) [µg/mL]	Activity (Klebsiella pneumoniae [4])	MIC (Klebsiella pneumoniae [5]) [µg/mL]	Activity (Klebsiella pneumoniae [6])	Activity (Klebsiella pneumoniae [7])
CO/N=C(\C(=O)N[C@@H]1C(=O)N2C(C(=O)O)=C(CSc3nc(=O)c(O)nn3C)CS[C@H]12)c1csc(N)n1 [CEFTRIAXONE]	Active	78 (≈ 141 µM)	4 (≈ 7.21 µM)	Active	4 (≈ 7.21 µM)	–	–
C[C@@H](O)[C@H]1C(=O)N2C(C(=O)O)=C(S[C@@H]3CN[C@H](C(=O)Nc4cccc(C(=O)O)c4)C3)[C@H](C)[C@H]12 [ERTAPENEM]	–	0.25 (≈ 0.526 µM)	< 0.25	–	< 0.25	Active	Active
